# Test results as given in paper PMC6694155, “PTPσ inhibitors promote hematopoietic stem cell regeneration” (Nature Communications, 2019).
# “And” between values parts separate entries of the source, which are not always exact repeats. Identical values can stand only once.
# Tests used:
# Protein Phosphatase 5 = molecular target: T1, Protein Phosphatase 5 (Homo sapiens, UniProt P53041); test: PhosphataseProfiler screen: PP5; assay type: biochemical; conditions: for Supplementary Figure 1: PP5 activity: replicates
# T1 construct: purchased Eurofins Pharma Discovery Services UK
# T1 sequence (P53041 1-499): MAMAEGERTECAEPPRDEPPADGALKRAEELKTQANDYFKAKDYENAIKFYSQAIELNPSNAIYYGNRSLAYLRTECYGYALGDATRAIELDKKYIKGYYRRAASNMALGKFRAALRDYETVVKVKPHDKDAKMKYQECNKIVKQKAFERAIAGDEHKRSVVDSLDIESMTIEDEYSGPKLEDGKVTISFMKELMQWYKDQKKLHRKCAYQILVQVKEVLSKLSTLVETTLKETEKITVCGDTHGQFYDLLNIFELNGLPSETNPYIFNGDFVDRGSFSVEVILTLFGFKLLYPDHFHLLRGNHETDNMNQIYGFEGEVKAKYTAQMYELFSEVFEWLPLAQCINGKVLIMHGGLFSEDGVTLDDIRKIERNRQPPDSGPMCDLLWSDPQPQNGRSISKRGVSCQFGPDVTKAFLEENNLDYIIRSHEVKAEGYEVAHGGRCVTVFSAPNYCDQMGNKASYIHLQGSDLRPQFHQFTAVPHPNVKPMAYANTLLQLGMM
# Description: Compound DJ001 was evaluated in a PhosphataseProfiler™ screen at 10 μM and 1 μM (2.7 μg/mL and 0.27 μg/mL) concentrations at Eurofins Pharma Discovery Services UK (Study number UK022-0004033) against a panel of 21 Phosphatases. In each experiment, the respective reference antagonist/agonist was tested directly with DJ001 and the data were compared with historical values determined at Eurofins. DJ001 compound inhibition was calculated as percentage inhibition of the enzymatic activity compared with control.
# C57BL/6 mice = test: Hematopoietic regeneration at day +10 after 750 cGy TBI (PB counts, BM KSL and progenitor cells, CFCs); assay type: in vivo, mouse; parameters: Supplementary Figure 4c: BFU-E / Supplementary Figure 5e: CFU-GM / Supplementary Figure 5e: BFU-E / Supplementary Figure 5e: CFU-GEMM: unit not given here
# Description: Femurs and tibiae were collected from killed C57BL/6 or Ptprs^−/− mice and flushed with IMDM containing 10% FBS and 1% penicillin–streptomycin for BM cells. PB was collected through sub-mandibular puncture. Cells were filtered through a 40 μM strainer and then treated with ACK lysis buffer (Sigma Aldrich) before antibody staining for flow cytometry. For KSL and CD150^+CD48^−KSL cell analysis, BM cells were stained with allophycocyanin (APC)-and Cy7-conjugated anti-mouse Sca1 (BD Biosciences, #560654, 1:100), phycoerythrin (PE)-conjugated anti-mouse c-kit (BD Biosciences, #553355, 1:100), V450 lineage cocktail (BD Biosciences, 561301, 1:10), Alexa Fluor 488-conjugated anti-mouse CD48 (BioLegend, #103414, 1:100), and Alexa Fluor 647-conjugated anti-mouse CD150 (Biolegend, #115918, 1:100) antibodies. For MEP, CMP, GMP, and CLP cell analysis, BM cells were stained with APC-Cy7-conjugated anti-mouse Sca1 (BD Biosciences, #560654, 1:100), PE-conjugated anti-mouse ckit (BD Biosciences, #553355, 1:100), V450 lineage cocktail (BD Biosciences, #561301; 1:10), Alexa Fluor 488-conjugated anti-mouse CD127 (BD Biosciences, #561533, 1:100), Alexa Fluor 647-conjugated anti-mouse CD34 (BD Biosciences, #560230; 1:100), and BV605-conjugated anti-mouse CD16/32 antibodies (BD Biosciences, #563006; 1:100). For donor engraftment analysis in transplanted mice, PB or BM cells were stained with BV605-conjugated anti-mouse CD45.2 (BioLegend, #109841, 1:100), fluorescein isothiocyanate (FITC)-conjugated anti-mouse CD45.1 (BD Biosciences, #553775, 1:100), PE-conjugated anti-mouse Mac-1 (BD Biosciences, #557397, 1:100) and anti-mouse Gr1 (BD Biosciences, #553128, 1:100), V450-conjugated anti-mouse CD3 (BD Biosciences, #561389, 1:100), and APC-Cy7-conjugated anti-mouse B220 (BD Biosciences, 552094, 1:100) antibodies.
# For survival studies, 10-week-old female C57BL/6 mice were irradiated with 750 cGy TBI, which is lethal for ~50% of C57BL/6 mice by day + 30 (LD50/30), using a Shepherd Cesium-137 irradiator. Twenty four hours post irradiation, mice were administered daily subcutaneous injections of 5 mg/kg DJ001 or DJ009, or vehicle in a volume of 100 μL for 10 days. DJ001 or DJ009 injections were prepared in PBS, 0.5% Tween 80, and 10% DMSO. Corresponding vehicle injections contained PBS, 10% DMSO, and 0.5% Tween 80. PB complete blood counts were measured using a Hemavet 950 instrument (Drew Scientific) at day + 10 post irradiation. For hematopoietic analysis, BM cells were collected at day + 10 post irradiation. To study whether DJ001 increased survival rates through activation of RAC signaling, the RAC inhibitor, EHT1864 (Selleckchem), was dissolved in PBS and administered intraperitoneally, 40 mg/kg every other day, to 750 cGy-irradiated mice until day + 10.
# CFC assays (colony-forming unit-granulocyte monocyte), burst-forming unit-erythroid, and CFU-GEMM were performed using MethoCult GF M3434 (Stemcell Technologies)[6]. For all in vitro assays, BM CD34^−KSL cells, KSL cells, and Lin^− cells were cultured in TSF media (IMDM, 10% FBS, 1% pen-strep, 20 ng/mL recombinant mouse TPO, 125 ng/mL recombinant mouse SCF, 50 ng/mL recombinant mouse Flt3 ligand). Recombinant mouse SCF, Flt3 ligand, and TPO were purchased from R&D Systems. For competitive repopulation assays, BM cells were isolated from donor 10–12-week-old female CD45.2^+ mice. Recipient 10-week-old female CD45.1^+ B6.SJL mice were irradiated with 950 cGy TBI using a Cs137 irradiator and donor BM cells were administered via tail vein injection along with a competing dose of 1 × 10^5 non-irradiated host BM cells. Multilineage donor hematopoietic cell engraftment was measured in the PB by flow cytometry.
# [1] = day +10 after 750 cGy TBI, individual mice
# [2] = day +10 after 750 cGy TBI, replicates
# [3] = day +10 after 750 cGy, 5 mg/kg s.c. daily
# [4] = day +10 after 750 cGy, 5 mg/kg s.c. daily, 5 mg/kg
# [5] = after 750 cGy TBI, individual mice
smiles,measurement,setting,value
"O=C(/C=C\Nc1cccc([N+](=O)[O-])c1)c1ccccc1 [DJ001, (Z)-3-((3-nitrophenyl)amino)-1-phenylprop-2-en-1-one]",Supplementary Figure 1: PP5 activity,Protein Phosphatase 5; 2.7 μg/mL DJ001,58 and 54 and 60
same,Supplementary Figure 1: PP5 activity,Protein Phosphatase 5; 0.27 g/mL DJ001,78 and 80 and 75
same,inhibitory activity against Protein Phosphatase 5,Protein Phosphatase 5; DJ001 at 10 μM and 1 μM,only modest inhibitory activity
same,"recovery of BM KSL cells, ckit+sca-1−lin− myeloid progenitors and CFCs following TBI","C57BL/6 mice; 750 cGy, 5 mg/kg s.c. daily day +1 to +10",accelerated the recovery
same,"percentages of BM MEPs, CMPs, GMPs, or PB myeloid, B-cell or T-cell populations",C57BL/6 mice; day +10 after 750 cGy,did not alter the percentages
same,percentages of BM common lymphoid progenitors (CLPs),C57BL/6 mice; day +10 after 750 cGy,modest increase
same,Supplementary Figure 4d (center left panel): BM progenitor cells,C57BL/6 mice; [1],0.05534 and 0.6345 and 0.3797 and 0.1366 and 0.1346 and 0.08271 and 0.1205 and 0.1142 and 0.1459 and 0.6791
same,Supplementary Figure 4d (center right panel): BM progenitor cells,C57BL/6 mice; [1],0.1315 and 0.5274 and 0.7758 and 0.2631 and 0.4325 and 0.1366 and 0.1603 and 0.4187 and 0.3345 and 1.367
same,Supplementary Figure 4d (left panel): BM progenitor cells,C57BL/6 mice; [1],0.1083 and 0.8819 and 0.5478 and 0.2535 and 0.1578 (2×) and 0.2622 and 0.4013 and 0.1995 and 0.6663
same,Supplementary Figure 4d (right panel): BM progenitor cells,C57BL/6 mice; [1],0.07453 and 0.07514 and 0.1093 and 0.1068 and 0.06267 and 0.05116 and 0.04956 and 0.2046 and 0.1087
same,Supplementary Figure 4c: BFU-E,C57BL/6 mice; [2],0 (2×) and 2 and 1 (3×)
same,Supplementary Figure 4c: CFU-GEMM,C57BL/6 mice; [2],0 and 2 and 1 (2×) and 3 (2×)
same,Supplementary Figure 4c: CFU-GM,C57BL/6 mice; [2],5 (3×) and 7 and 6 and 10
same,PB lymphocytes compared with vehicle,C57BL/6 mice; [3],more than twofold increased
same,PB neutrophils compared with vehicle,C57BL/6 mice; [3],more than twofold increased
same,PB white blood cells compared with vehicle,C57BL/6 mice; [3],more than twofold increased
same,PB WBCs per mouse (Figure 2c left panel),C57BL/6 mice; [4],0.86 and 0.62 and 0.68 and 0.76 and 0.34 and 0.7 and 0.52 and 0.64
same,PB lymphocytes (LYMPH) per mouse (Figure 2c right panel),C57BL/6 mice; [4],0.38 and 0.39 and 0.4 and 0.45 and 0.24 and 0.36 and 0.33 and 0.42 and 0.37
same,PB neutrophils (NEU) per mouse (Figure 2c center panel),C57BL/6 mice; [4],0.27 and 0.16 and 0.18 and 0.17 and 0.06 and 0.2 and 0.12
same,numbers of BM KSL cells per mouse (Figure 2e center left panel),C57BL/6 mice; day +10 post 750 cGy,15.7 and 9.66 and 15 and 10.6 and 9.42 and 14.8 and 11.8 and 11.5 and 10.7
same,numbers of BM c-kit+sca-1− cells per mouse (Figure 2e right panel),C57BL/6 mice; day +10 post 750 cGy,1.33 and 6.87 and 4.4 and 4.05 and 3.27 and 5.18 and 7.29 and 2.89 and 7.28
same,percentages of BM KSL cells per mouse (Figure 2e left panel),C57BL/6 mice; day +10 post 750 cGy,0.749% and 0.807% and 1.138% and 0.766% and 0.608% and 0.862% and 0.365% and 1.197% and 0.783%
same,percentages of BM c-kit+sca-1− cells per mouse (Figure 2e center right panel),C57BL/6 mice; day +10 post 750 cGy,1.717% and 4.73% and 3.337% and 2.916% and 2.11% and 3.013% and 2.25% and 3.004% and 5.312%
same,increase of percentages and numbers of BM KSL stem/progenitor cells compared to irradiated control mice,"C57BL/6 mice; irradiated mice, day +10",2 fold
"O=C(/C=C\Nc1cc(F)cc(F)c1)c1ccccc1 [DJ009, (Z)-3-((3,5-difluorophenyl)amino)-1-phenylprop-2-en-1-one]","PB WBCs, neutrophils and lymphocytes, BM KSL cells, and CFCs","C57BL/6 mice; 750 cGy TBI, 5 mg/kg DJ009 daily for 10 days",significant increase
same,Supplementary Figure 5c (center panel): PB counts,C57BL/6 mice; [5],0.08 and 0.19 and 0.29 and 0.1 and 0.39 and 0.13 and 0.2
same,Supplementary Figure 5c (left panel): PB counts,C57BL/6 mice; [5],1.4 and 0.72 and 1.76 and 0.4 and 1.62 and 0.52 and 0.94
same,Supplementary Figure 5c (right panel): PB counts,C57BL/6 mice; [5],1.27 and 0.4 and 1.32 and 0.26 and 0.96 and 0.29 and 0.63
same,Supplementary Figure 5d (center panel): BM cells,C57BL/6 mice; [5],4.83 and 5.26 and 6.06 and 14.68 and 8.28 and 9.38 and 7.6
same,Supplementary Figure 5d (left panel): BM cells,C57BL/6 mice; [5],1.079 and 0.621 and 0.841 and 0.709 and 1.581 and 1.301 and 0.94
same,Supplementary Figure 5e: BFU-E,"C57BL/6 mice; after 750 cGy TBI, replicates",0 (6×) and 1 (2×) and 2
same,Supplementary Figure 5e: CFU-GEMM,"C57BL/6 mice; after 750 cGy TBI, replicates",1 and 0 (3×) and 3 and 2 (3×) and 4
same,Supplementary Figure 5e: CFU-GM,"C57BL/6 mice; after 750 cGy TBI, replicates",5 and 4 and 2 and 6 and 8 and 7 and 19 and 18 and 15
